Experimental data: patent US11377444B2, “Pyridopyrimidine compounds acting as mTORC 1/2 dual inhibitors” (MEDSHINE DISCOVERY INC., priority 2017, dated 2022)
Read-outs that look alike come from different tables or passages of the source.

How the values were obtained:
MCF-7 cell = experiment: Cell proliferation inhibitory activity (Cell-Titer-Glo), MCF-7; type: cell-based; settings: Homo sapiens, MCF7, 72 h; 3 days incubation
Source text: (§1) Experimental Embodiment 2: Evaluation of Cell Proliferation Inhibitory Activity
(§2) Experiment objective: To detect cell proliferation inhibitory activity of the tested compounds.
(§3) Experimental principle: The luciferase in the Cell-Titer-Glo reagent produces oxyluciferin using luciferin, oxygen and ATP as reaction substrates, and releases energy in the form of light. Since the reaction of luciferase requires ATP, the total amount of light generated by the reaction is proportional to the total amount of ATP that reflects cell viability.
(§4) Cell lines: MCF-7 cell line […], HT-29 cell line (ATCC-HTB-38), OE21 (ECACC-96062201), NCI-N87 cell line (ATCC-CRL-5822)
(§5) Cell culture medium: (RPMI 1640 culture medium (Invitrogen #1868546; 10% serum Invitrogen #1804958; L-glutamine 1×, Invitrogen #1830863; dual antibiotic Hyclone #J170012))
(§6) Cell Titer-Glo® Luminescent Cell Viability Assay Kit (Promega #G7573)
(§7) The cells were inoculated in a 384- or 96-well plate with a density of 1000 cells per well and 25 μL per well according to the instructions of the cell inoculating plate. The edge wells were not inoculated with cells, and was supplemented with […].
(§8) (i) The mother solution of the compound was 10 mM, and diluted with DMSO to an initial concentration of 4 mM. The compound was added to the compound mother solution, 9 μL per well.
(§9) (ii) The compound was diluted with ECHO liquid-handling workstation. Each well of the cell plate was added with 125 nL compound. Each well of the cell wells in 2nd column and 23rd column was added with 125 nL DMSO, and each of the PBS wells in 1st column and 24th column was added with 125 nL DMSO.
(§10) (iii) Each well of the cell plate was supplemented with 25 μL culture medium, the final volume in each well of the cell plate was 50 μL, […] 3 times dilution, 10 concentrations, each concentration was duplicated in left and right wells, the final DMSO concentration was 0.25%.
(§11) 2.3. After addition of the compound, centrifugation was performed at 1000 rpm for 1 min, and the cell plate was placed in a 37° C., 5% CO2 incubator for 3 days.
(§12) The cell plate was taken out from the incubator and equilibrated at room temperature for 30 minutes. 25 μL Cell-Titer-Glo reagent was added to each well, shaken for one minute to mix thoroughly, centrifuged at 1000 rpm for 1 minute. After 10 minutes, the plate was read on PerkinElmer Envision with a […] reading time was set at 0.2 second.

HT-29 cell = experiment: Cell proliferation inhibitory activity (Cell-Titer-Glo), HT-29; type: cell-based; settings: Homo sapiens, HT-29, 72 h, 3 days incubation
Source text: as §1, §2, §3, §4, §5, §6, §7, §8, §9, §10, §11, §12

OE21 cell = experiment: Cell proliferation inhibitory activity (Cell-Titer-Glo), OE21; type: cell-based; settings: OE21, 72 h; 3 days incubation
Source text: as §1, §2, §3, §4, §5, §6, §7, §8, §9, §10, §11, §12

[1] = Pharmacokinetic evaluation in plasma after IV and PO administration; type: in vivo; settings: female Balb/c mice; for AUC(0-inf) / AUC(0-t) / C0 / clearance / half-life / MRT inf / MRT last / Vd / Cmax / Tmax / bioavailability: mouse; for MRT inf: read-out: MRT0-inf; for MRT last: read-out: MRT0-last; for Vd: read-out: Vdss
Description: Experimental Embodiment 3: Pharmacokinetic Evaluation
The test compound was mixed with […] (Cremophor EL), vortexed and sonicated to prepare a 1 mg/mL near-clear solution, which was filtered with a microporous filter membrane for future use. Female Balb/c mice of 18 to 20 grams were selected and the solution of the test compound was administered intravenously at a dose of 1 or 2 mg/kg. The test compound was mixed with an aqueous solution of 1% Tween 80, 9% polyethylene glycol 400, and 90% water, vortexed and sonicated to prepare 1 mg/mL near-clear solution, which was filtered with a microporous filter membrane for future use.
Female Balb/c mice of 18 to 20 grams were selected, and the solution of the test compound was orally administered at a dose of 2 or 10 mg/kg. The whole blood was collected at a certain time, and prepared into plasma. The drug concentration was analyzed by LC-MS/MS, and the pharmacokinetic parameters were calculated using Phoenix WinNonlin software (Pharsight Corporation, USA).

[2] = biological target: T1, mTOR kinase (mTORC1 and mTORC2 kinase complex) (Homo sapiens, UniProt P42345); experiment: In vitro evaluation of mTOR kinase inhibitory activity (DiscoverX ligand-bead competition binding, qPCR readout)
T1 construct: purchased DiscoverX; host or cells: HEK-293
Summary of the method: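 Tagged mTOR expressed in HEK-293 cells was combined with streptavidin beads carrying biotinylated ligand and DMSO-dissolved compound, shaken 1 h at room temperature. Beads were washed, then eluted 30 min with […] non-biotin affinity ligand. Kinase in eluate quantified by qPCR.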

## CNC(=O)c1cccc(-c2ccc3c(N4CCOC[C@@H]4C)nc(N4CCOC[C@@H]4C)nc3n2)c1 [AZD2014, reference compound]
MCF-7 cell
  IC50: 95 nM
HT-29 cell
  IC50: 316 nM
OE21 cell
  IC50: 148 nM
[1]; IV 1 mg/kg
  Tlast: 8.00 h
  AUC(0-inf): 4.28 µM·h
  AUC(0-t): 4.27 µM·h
  C0: 4.79 µM
  clearance: 8.41 mL/min/kg
  half-life: 0.967 h
  MRT inf: 1.88 h
  MRT last: 0.268 h
  Vd: 0.677 L/kg
[1]; IV 2 mg/kg
  AUCExtra: 0.384%
  AUMCExtra: 2.95%
  Tlast: 8.00 h
  AUC(0-inf): 8.91 µM·h
  AUC(0-t): 8.88 µM·h
  C0: 8.07 µM
  clearance: 8.08 mL/min/kg
  half-life: 1.05 h
  MRT inf: 1.24 h
  MRT last: 1.2 h
  Vd: 0.599 L/kg
[1]; PO 2 mg/kg
  AUCExtra: 0.0496%
  AUMCExtra: 0.347%
  Tlast: 12.0 h
  AUC(0-inf): 7.24 µM·h
  AUC(0-t): 8.24 µM·h
  Cmax: 4.37 µM
  Tmax: 0.5 h
  bioavailability: 96.2%
  half-life: 1.14 h
  MRT inf: 1.95 h
  MRT last: 1.95 h
[1]; PO 10 mg/kg
  AUCExtra: 0.156%
  AUMCExtra: 1.82%
  Tlast: 24.0 h
  AUC(0-inf): 41.5 µM·h
  AUC(0-t): 41.4 µM·h
  Cmax: 17 µM
  Tmax: 0.25 h
  bioavailability: 93.1%
  half-life: 3.46 h
  MRT inf: 2.5 h
  MRT last: 2.45 h

## CNC(=O)c1cccc(-c2ccc3c(N4CCOC[C@@H]4C)nc(N4CCOC5(CCC5)C4)nc3n2)c1 [Embodiment 23]
[2]
  Kd: 0.38 nM
MCF-7 cell
  IC50: 163 nM
HT-29 cell
  IC50: 607 nM
OE21 cell
  IC50: 257 nM
[1]; IV 2 mg/kg
  AUCExtra: 0.0592%
  AUMCExtra: 0.616%
  Tlast: 12.0 h
  AUC(0-inf): 13.4 µM·h
  AUC(0-t): 13.4 µM·h
  C0: 12.2 µM
  clearance: 5.08 mL/min/kg
  half-life: 1.47 h
  MRT inf: 1.36 h
  MRT last: 1.35 h
  Vd: 0.414 L/kg
[1]; PO 10 mg/kg
  AUCExtra: 0.414%
  AUMCExtra: 4.62%
  Tlast: 24.0 h
  AUC(0-inf): 60.3 µM·h
  AUC(0-t): 60.1 µM·h
  Cmax: 27.9 µM
  Tmax: 0.25 h
  bioavailability: 89.9%
  half-life: 2.61 h
  MRT inf: 2.49 h
  MRT last: 2.39 h

## C[C@H]1COCCN1c1nc(N2CCOC3(CC3)C2)nc2nc(-c3cccc(C(N)=O)c3)ccc12 [Embodiment 51]
[2]
  Kd: 0.3 nM
MCF-7 cell
  IC50: 208 nM
[1]; IV 2 mg/kg
  AUCExtra: 0.0469%
  AUMCExtra: 0.400%
  Tlast: 12.0 h
  AUC(0-inf): 9.37 µM·h
  AUC(0-t): 9.73 µM·h
  C0: 8.24 µM
  clearance: 7.72 mL/min/kg
  half-life: 1.1 h
  MRT inf: 1.6 h
  MRT last: 1.59 h
  Vd: 0.739 L/kg
[1]; PO 10 mg/kg
  AUCExtra: 0.225%
  AUMCExtra: 1.02%
  Tlast: 12.0 h
  AUC(0-inf): 42 µM·h
  AUC(0-t): 41.9 µM·h
  Cmax: 12.8 µM
  Tmax: 0.25 h
  bioavailability: 89.5%
  half-life: 1.22 h
  MRT inf: 3.04 h
  MRT last: 3.02 h
